# Test results from the supplement of paper PMC8976852.
# ± gives the standard deviation of the averaged measurements.
# Experiments:
# Experiment in all cases: activity (1 - area under the dose-response curve within the screened range) (fraction); higher = more sensitive
# Conditions in all cases: treatment time: 72 h
# [1] = test system: HCM-SANG-0532-C20 (colorectal cancer organoid)
# Description: (§1)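 Patient-derived cancer organoids (colorectal and oesophageal, HCM-SANG models) were grown for up to 6 months in 5% or 80% ECM (BME-2), then seeded in 384-well plates on an ECM layer and treated with 72 compounds for 3 days. Each compound used a 7-point half-log dilution series spanning a 1000-fold range, in technical triplicate and biological duplicate. Dose-response curves were fitted with a non-linear mixed effects model; fits with RMSE > 0.3 were removed, and activity = 1 - AUC within the screened dose range (0 = no activity, 1 = maximum).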
# [2] = test system: HCM-SANG-0291-C15 (oesophageal cancer organoid)
# Description: as §1
# [3] = test system: HCM-SANG-0266-C20 (colorectal cancer organoid)
# Description: as §1
# [4] = test system: HCM-SANG-0270-C20 (colorectal cancer organoid)
# Description: as §1
# [5] = ECM percentage in culture prior to screening 5 %
# [6] = ECM percentage in culture prior to screening 80 %
SMILES,"activity [1, 5]","activity [1, 6]","activity [2, 5]","activity [2, 6]","activity [3, 5]","activity [3, 6]","activity [4, 5]","activity [4, 6]"
C[C@@H](Oc1cc(-c2cnn(C3CCNCC3)c2)cnc1N)c1c(Cl)ccc(F)c1Cl [Crizotinib],0.101 ± 0.068,0.154 ± 0.04,0.0562 ± 0.022,0.065 ± 0.022,0.144 ± 0.035,0.0852 ± 0.034,0.0695 ± 0.034,0.0648 ± 0.056
CC(C)(C)c1nc(-c2cccc(NS(=O)(=O)c3c(F)cccc3F)c2F)c(-c2ccnc(N)n2)s1 [Dabrafenib],0.0306 ± 0.018,0.0604 ± 0.032,0.0243 ± 0.0054,0.0207 ± 0.0019,0.138 ± 0.084,0.0841 ± 0.044,0.035 ± 0.012,0.0243 ± 0.0073
Cn1c(=O)n(-c2ccc(C(C)(C)C#N)cc2)c2c3cc(-c4cnc5ccccc5c4)ccc3ncc21 [Dactolisib],0.193 ± 0.058,0.257 ± 0.025,0.101 ± 0.035,0.0783 ± 0.027,0.254 ± 0.077,0.239 ± 0.092,0.123 ± 0.039,0.0768 ± 0.059
Cc1nc(Nc2ncc(C(=O)Nc3c(C)cccc3Cl)s2)cc(N2CCN(CCO)CC2)n1 [Dasatinib],0.0937 ± 0.048,0.0525 ± 0.021,0.0426 ± 0.021,0.0463 ± 0.017,0.129 ± 0.069,0.0743 ± 0.054,0.0518 ± 0.018,0.045 ± 0.018
CC(=O)O[C@@]12CO[C@@H]1C[C@H](O)[C@@]1(C)C(=O)[C@H](O)C3=C(C)[C@@H](OC(=O)[C@H](O)[C@@H](NC(=O)OC(C)(C)C)c4ccccc4)C[C@@](O)([C@@H](OC(=O)c4ccccc4)[C@H]21)C3(C)C [Docetaxel],0.128 ± 0.028,0.158 ± 0.017,0.161 ± 0.058,0.188 ± 0.05,0.237 ± 0.033,0.19 ± 0.031,0.0873 ± 0.042,0.14 ± 0.08
Nc1ccccc1NC(=O)c1ccc(CNC(=O)OCc2cccnc2)cc1 [Entinostat],0.0795 ± 0.022,0.102 ± 0.025,0.124 ± 0.045,0.119 ± 0.047,0.0903 ± 0.02,0.0905 ± 0.023,0.0723 ± 0.025,0.0687 ± 0.041
c1cn2cc(-c3ccc4cn[nH]c4c3)nc(Nc3ccc(N4CCOCC4)cc3)c2n1 [Entospletinib],0.0354 ± 0.019,0.0256 ± 0.0054,0.0238 ± 0.0074,0.0204 ± 0.0022,0.0298 ± 0.01,0.0227 ± 0.0068,0.0261 ± 0.0085,0.0204 ± 0.0032
C#Cc1cccc(Nc2ncnc3cc(OCCOC)c(OCCOC)cc23)c1 [Erlotinib],0.207 ± 0.091,0.209 ± 0.06,0.204 ± 0.026,0.198 ± 0.033,0.171 ± 0.037,0.129 ± 0.053,0.148 ± 0.1,0.121 ± 0.086
C[C@]12CC[C@@H]3c4ccc(O)cc4C[C@@H](CCCCCCCCC[S+]([O-])CCCC(F)(F)C(F)(F)F)[C@H]3[C@@H]1CC[C@@H]2O (stereo partly specified) [Fulvestrant],0.022 ± 0.0021,0.0273 ± 0.0072,0.0285 ± 0.013,0.0212 ± 0.0031,0.0414 ± 0.019,0.0246 ± 0.0074,0.0292 ± 0.0081,0.0268 ± 0.015
Nc1ccn([C@@H]2O[C@H](CO)[C@@H](O)C2(F)F)c(=O)n1 [Gemcitabine],0.247 ± 0.042,0.423 ± 0.04,0.813 ± 0.021,0.801 ± 0.049,0.624 ± 0.097,0.465 ± 0.13,0.337 ± 0.13,0.234 ± 0.17
CCNC(=O)C[C@@H]1N=C(c2ccc(Cl)cc2)c2cc(OC)ccc2-n2c(C)nnc21 [I-BET-762],0.0448 ± 0.021,0.0841 ± 0.035,0.0724 ± 0.037,0.068 ± 0.015,0.121 ± 0.041,0.0782 ± 0.04,0.0441 ± 0.019,0.0339 ± 0.019
CCc1c2c(nc3ccc(OC(=O)N4CCC(N5CCCCC5)CC4)cc13)-c1cc3c(c(=O)n1C2)COC(=O)[C@]3(O)CC [Irinotecan],0.1 ± 0.035,0.0793 ± 0.037,0.233 ± 0.019,0.18 ± 0.015,0.0899 ± 0.035,0.0683 ± 0.022,0.0887 ± 0.063,0.079 ± 0.039
Cc1cc(-c2ncc(CC(=O)Nc3ccc(-c4cnccn4)cn3)cc2C)ccn1 [LGK974],0.0269 ± 0.005,0.0397 ± 0.009,0.0263 ± 0.0099,0.0251 ± 0.0087,0.0334 ± 0.014,0.0329 ± 0.017,0.0409 ± 0.013,0.0485 ± 0.035
CS(=O)(=O)CCNCc1ccc(-c2ccc3ncnc(Nc4ccc(OCc5cccc(F)c5)c(Cl)c4)c3c2)o1 [Lapatinib],0.143 ± 0.069,0.205 ± 0.052,0.207 ± 0.045,0.189 ± 0.022,0.21 ± 0.071,0.132 ± 0.082,0.157 ± 0.057,0.106 ± 0.073
C[C@]1(O)C[C@@H](c2nc(-c3ccc4ccc(-c5ccccc5)nc4c3)c3c(N)nccn32)C1 [Linsitinib],0.033 ± 0.015,0.0378 ± 0.015,0.0216 ± 0.0028,0.0248 ± 0.013,0.0577 ± 0.033,0.0295 ± 0.017,0.0341 ± 0.014,0.0245 ± 0.0092
CCNC(=O)c1noc(-c2cc(C(C)C)c(O)cc2O)c1-c1ccc(CN2CCOCC2)cc1 [Luminespib],0.338 ± 0.087,0.291 ± 0.014,0.0294 ± 0.011,0.0466 ± 0.038,0.319 ± 0.046,0.322 ± 0.024,0.111 ± 0.061,0.0622 ± 0.041
C=CCn1c(=O)c2cnc(Nc3ccc(N4CCN(C)CC4)cc3)nc2n1-c1cccc(C(C)(C)O)n1 [MK-1775],0.156 ± 0.019,0.19 ± 0.027,0.257 ± 0.036,0.24 ± 0.051,0.407 ± 0.048,0.348 ± 0.044,0.255 ± 0.042,0.205 ± 0.11
NC1(c2ccc(-c3nc4ccn5c(=O)[nH]nc5c4cc3-c3ccccc3)cc2)CCC1 [MK-2206],0.158 ± 0.11,0.168 ± 0.034,0.086 ± 0.048,0.0594 ± 0.025,0.223 ± 0.074,0.152 ± 0.095,0.076 ± 0.014,0.0487 ± 0.04
O=c1cc(N2CCOCC2)oc2c(-c3cccc4c3sc3ccccc34)cccc12 [NU7441],0.124 ± 0.045,0.119 ± 0.022,0.0932 ± 0.037,0.0809 ± 0.029,0.104 ± 0.032,0.063 ± 0.018,0.0446 ± 0.03,0.0686 ± 0.032
CC1(C)CCC(c2ccc(Cl)cc2)=C(CN2CCN(c3ccc(C(=O)NS(=O)(=O)c4ccc(N[C@H](CCN5CCOCC5)CSc5ccccc5)c(S(=O)(=O)C(F)(F)F)c4)cc3)CC2)C1 [Navitoclax],0.314 ± 0.045,0.288 ± 0.075,0.125 ± 0.032,0.121 ± 0.029,0.327 ± 0.03,0.358 ± 0.051,0.201 ± 0.033,0.188 ± 0.047
Cc1cn(-c2cc(NC(=O)c3ccc(C)c(Nc4nccc(-c5cccnc5)n4)c3)cc(C(F)(F)F)c2)cn1 [Nilotinib],0.111 ± 0.036,0.104 ± 0.021,0.0659 ± 0.035,0.0726 ± 0.03,0.0558 ± 0.029,0.0445 ± 0.025,0.0302 ± 0.0098,0.0451 ± 0.018
COc1ccc(C2=N[C@@H](c3ccc(Cl)cc3)[C@@H](c3ccc(Cl)cc3)N2C(=O)N2CCNC(=O)C2)c(OC(C)C)c1 [Nutlin-3a (-)],0.148 ± 0.039,0.203 ± 0.054,0.0424 ± 0.021,0.0359 ± 0.015,0.218 ± 0.046,0.193 ± 0.064,0.161 ± 0.034,0.0722 ± 0.033
COc1cccc2cc(-c3nc([C@H]4CC[C@H](C(=O)O)CC4)n4ncnc(N)c34)[nH]c12 [OSI-027],0.0577 ± 0.024,0.0906 ± 0.013,0.0395 ± 0.012,0.032 ± 0.014,0.141 ± 0.054,0.0937 ± 0.059,0.0587 ± 0.034,0.0504 ± 0.036
O=C(c1cc(Cc2n[nH]c(=O)c3ccccc23)ccc1F)N1CCN(C(=O)C2CC2)CC1 [Olaparib],0.0528 ± 0.018,0.0726 ± 0.027,0.0587 ± 0.015,0.0412 ± 0.017,0.0602 ± 0.028,0.0424 ± 0.017,0.0818 ± 0.017,0.0664 ± 0.027
O=C(O)C(=O)O.[NH-][C@@H]1CCCC[C@H]1[NH-].[Pt+2] [Oxaliplatin],0.0448 ± 0.016,0.0692 ± 0.031,0.0391 ± 0.022,0.0459 ± 0.025,0.0673 ± 0.036,0.0486 ± 0.022,0.0594 ± 0.018,0.0493 ± 0.038
COCC1(CO)C(=O)C2CCN1CC2 (stereo unspecified) [PRIMA-1MET],0.074 ± 0.023,0.0388 ± 0.016,0.0344 ± 0.019,0.0328 ± 0.011,0.0344 ± 0.016,0.0318 ± 0.016,0.0251 ± 0.01,0.0283 ± 0.0083
CC(=O)O[C@H]1C(=O)[C@@]2(C)[C@H]([C@H](OC(=O)c3ccccc3)[C@]3(O)C[C@H](OC(=O)[C@H](O)[C@@H](NC(=O)c4ccccc4)c4ccccc4)C(C)=C1C3(C)C)[C@]1(OC(C)=O)CO[C@@H]1C[C@@H]2O [Paclitaxel],0.138 ± 0.058,0.256 ± 0.031,0.246 ± 0.044,0.27 ± 0.066,0.331 ± 0.06,0.317 ± 0.067,0.223 ± 0.051,0.218 ± 0.084
